For test [1], the system named is isolated perfused rat pancreas. The experiment in a line: IRI (insulin) release from the isolated perfused rat pancreas. An excerpt: Such a use should be especially safe as no hypoglycaemia will occur during treatment because of the lack of IRI releasing effect in the presence of hypoglycaemia and normoglycaemia.
Furthermore, it is stated therein that compounds of formula I show no or minor, negligible metabolic effects. […] Based thereupon it is surprising that compounds of formula I have an insulin releasing effect on animals primed with glucose corresponding to hyperglycaemia.

The next test concerns rat free fat cells. The experiment in a line: Lipolytic effect on rat free fat cells in vitro. The class given is cell-based. The following applies: compared with glucagon.
The test system of a further test is rats. The experiment in a line: Metabolic effects after administration to normally fasted and fed rats in vivo.
In test [2] the test system is isolated perfused rat pancreas. The following applies: known effect of glucagon; cited from earlier work.
The subject of the next test is Normoglycaemic Rats. The experiment in a line: Experiment D: effect on plasma glucose and plasma IRI levels in normoglycaemic rats. The class given is in vivo, Wistar rats. Particulars: normally fed rats; for Blood glucose / Plasma IRI: i.v. injection at 0 min, equimolar doses (glucagon 1 mg/kg, glucagon(1-21) 0.77 mg/kg), mean, N = 10. The protocol:
Glucagon (-1 mg/kg) and an equimolar dosis of glucagon(1-21), i.e. 0.77 mg/kg, were injected intravenously at the beginning time (time: 0 minutes) to normally fed male Wistar rats weighing 150 g (+/- 5 g). Blood samples were taken from the orbital plexus at the times -5, 2, 5, 10, 15, 30, and 60 minutes. Blood glucose was assayed according to the hexokinase method and plasma insulin was assayed by RIA. […] Contrary to glucagon, glucagon(1-21) had no effect on these parameters. Mean blood glucose values (N = 10) are stated in Table VI below, and mean plasma IRI values (N = 10) are stated in Table VII below.

The mark [3] stands for this setting: buffer glucose concentration 2.0 mg/ml.
Setting [4] is: i.v., glucagon 1 mg/kg, glucagon(1-21) 0.77 mg/kg.

With “des-pentapeptide-(22-26)-glucagon [des(22-26)glucagon]”, the insulin releasing effect result was “have this effect” in test [1] (at hyperglycaemia) and “possesses an insulin releasing effect” in test [1] (setting [3]). For the same substance, the lipolytic effect entry in the test with rat free fat cells is recorded as “negligible”. Besides, in the test with rats, the metabolic effects result was “No metabolic effects have been found”.

As for Glucagon [reference compound], the insulin release result in test [2] is “releases insulin”. Also, the insulin releasing effect result in test [1] (at hyperglycaemia) was “have this effect”; in test [1] (in the presence of normoglycaemia and hypoglycaemia) it was “has an insulin releasing effect”. For the same substance, the Blood glucose with Normoglycaemic Rats (time 2 min) worked out at 1.2 mg/mL; with Normoglycaemic Rats (time 5 min) it was 1.3 mg/mL; with Normoglycaemic Rats (time 10 min), 1.3 mg/mL; with Normoglycaemic Rats (time 15 min), 1.4 mg/mL; in the test with Normoglycaemic Rats (time 30 min) it was 1.5 mg/mL; in the test with Normoglycaemic Rats (time 60 min), 1.1 mg/mL. Also, in the test on Normoglycaemic Rats (time -5 min), the Blood glucose was 0.9 mg/mL. In addition, the “Plasma IRI” value worked out at 95 µU/ml with Normoglycaemic Rats (time 2 min); 98 µU/ml in the test with Normoglycaemic Rats (time 5 min); 82 µU/ml in the test on Normoglycaemic Rats (time 10 min); 67 µU/ml in the test on Normoglycaemic Rats (time 15 min); 53 µU/ml in the test with Normoglycaemic Rats (time 30 min); 17 µU/ml with Normoglycaemic Rats (time 60 min). In the test with Normoglycaemic Rats (time -5 min), the “Plasma IRI” value is reported as 19 µU/ml. The “effect on blood glucose” value with Normoglycaemic Rats (setting [4]) was “significantly increasing effect”. In the test on Normoglycaemic Rats (setting [4]), the “effect on plasma IRI” value is given as “significantly increasing effect”.

Take “glucagon(1-26) (HSQGTFTSDYSKYLDSRRAQDFVQWL; Glucagon; UniProt P01275 53-78, looked up, fragment)”: the insulin releasing effect result in test [1] (at hyperglycaemia) is listed as “have this effect”; in test [1] (setting [3]), “possesses an insulin releasing effect”. Besides, the lipolytic effect result with rat free fat cells is “negligible”. Also, the metabolic effects entry in the test with rats was “No metabolic effects have been found”.
